Data on 1 molecule can be found in publication PMC12048447, “PANTAX: a phase Ib clinical trial of the efflux pump inhibitor SCO-101 in combination with gemcitabine and nab-paclitaxel in non-resectable or metastatic pancreatic cancer” (Investigational New Drugs, 2025).

One data set relates to PANC-1-Pac cells. In words: MTT cell viability and ZIP synergy in paclitaxel-resistant PANC-1-Pac cells. Type of data set: cell-based, human. The settings on record: 72 h with drug + 72 h fresh media. The source says: A paclitaxel-sensitive human PDAC cell line, PANC-1, was obtained (ATCC, CRL-1469) and the derived paclitaxel-resistant PANC-1-Pac cell line was established by gradually increasing concentrations of paclitaxel over a period of 2–4 months. Standard MTT and crystal violet assays were applied to evaluate the effect of treatment with either combinations of SCO-101 and paclitaxel or SRPK1-inhibitor and paclitaxel. Details are presented in the Online Resource.
Statistical analyses were mainly descriptive and included mean, median, range, and 95% CIs. Kaplan–Meier plots were constructed using Stata version 18 (StataCorp, 2023). In the preclinical study, the zero interaction potency (ZIP) synergy score was calculated as described by Yadav et al., to quantify the deviation from the expectation of zero interaction between drugs. A ZIP synergy score above 10 indicates synergy.
A paclitaxel-sensitive human PDAC cell line PANC-1 was obtained (ATCC, CRL-1469) and the derived paclitaxel-resistant PANC-1-Pac cell line was established by gradually increasing concentrations of paclitaxel over a period of 2-4 months. Standard MTT and crystal violet assays were applied to evaluate the effect of treatment with either combinations of SCO-101/paclitaxel or SRPK1 inhibitor/paclitaxel.
The selection began at 1 nM, increased to 2 nM and 4 nM, and ended at 8 nM. For each drug concentration the cells were kept for three passages. To evaluate the effect of the treatment either a Crystal Violet assay or MTT (3-(4,5-dimethylthiazol-2-yl)-2,5-diphenyltetrazolium bromide) assay were applied.
The MTT was conducted according to standard conditions. In short, cells were seeded at a density of 7,000 cells/well into a 96-well. One day after seeding, the cells were experimentally treated. Control conditions consisted of either growth medium (‘untreated’) or DMSO diluted in growth medium. All treatments were performed in triplicates. The cells were then kept in the CO2 incubator at 37 °C for 72 hours and plates were incubated with 100μl 1:10 MTT (0.5 mg/ml dissolved in phosphate buffered saline) for 3 hours and hereafter stopped using 100μl/well stop buffer (50g Sodium Dodecyl Sulphate, 245 mL MiliQ H2O, 5mL 1.0 N HCl was added to dissolve the formazan crystals overnight. Optical densities were measured at 570 and 670 nm.
Experiments with 4 different concentrations of either SCO-101 or paclitaxel and their combinations were applied to test for synergy among these two compounds in both the PANC-1 parental and -Paclitaxel resistant cells. SCO-101 was applied in 10, 20, 40 and 50 µM whereas paclitaxel was tested in 5, 10, 15 and 20 nM for a total of 144 h, where drug was only present in the first 72h (sFig 2). The SRPK1 inhibitor SPHINX31 was tested at 0.1; 0.5; 1 and 5 µM. The SRPK1 inhibitor SRPIN was tested at 1; 5; 10 and 50 µM. Both inhibitors were tested in combination with 5, 10, 15 and 20 nM Paclitaxel.
PANC-1-Pac cells treated with paclitaxel and SRPIN340 with four different concentrations of each for a total of 144 hours. Cell viability was evaluated by MTT assays and reported as percentage of untreated control (medium). Error bars indicate percentage standard deviation.

Data set [1] addresses T1, ABCB1 (MDR1) human ABC transporter (Homo sapiens, UniProt P08183).
T1 construct: purchased SOLVO Biotechnology
In words: ABCB1 (MDR1) vesicular uptake inhibition in inside-out membrane vesicles. Type of data set: biochemical. Particulars: vesicular uptake of probe substrate, SCO-101 1.2-300 µM, with and without ATP; read-out: IC50, inhibition of MDR1/ABCB1 efflux transporter. How it is done:
Analysis of SCO-101 ABCB1 (MDR1) efflux transporter inhibition was evaluated by measuring the vesicular uptake of a probe substrate into inside-out membrane vesicles expressing ABCB1 (MDR1) human ABC transporter in the absence and presence of SCO-101 (1.2 –300 μM) with and without ATP. Transporter inhibition was observed as reduced level of vesicular uptake of the probe substrate in the presence of ATP. ABCB1 (MDR1) assay was conducted with reagents from PredivezTM VT Reagent Kit for MDR1/P-gp (SOLVO Biotechnology). Assays were conducted as per the manufacturer’s recommendation. The inhibition was evaluated by measuring the vesicular uptake of a probe substrate into inside-out membrane vesicles. Assays were conducted with or without ATP and in the absence and presence of SCO-101 at the indicated concentrations (1.2 –300μM).

T1 sequence (P08183 whole entry): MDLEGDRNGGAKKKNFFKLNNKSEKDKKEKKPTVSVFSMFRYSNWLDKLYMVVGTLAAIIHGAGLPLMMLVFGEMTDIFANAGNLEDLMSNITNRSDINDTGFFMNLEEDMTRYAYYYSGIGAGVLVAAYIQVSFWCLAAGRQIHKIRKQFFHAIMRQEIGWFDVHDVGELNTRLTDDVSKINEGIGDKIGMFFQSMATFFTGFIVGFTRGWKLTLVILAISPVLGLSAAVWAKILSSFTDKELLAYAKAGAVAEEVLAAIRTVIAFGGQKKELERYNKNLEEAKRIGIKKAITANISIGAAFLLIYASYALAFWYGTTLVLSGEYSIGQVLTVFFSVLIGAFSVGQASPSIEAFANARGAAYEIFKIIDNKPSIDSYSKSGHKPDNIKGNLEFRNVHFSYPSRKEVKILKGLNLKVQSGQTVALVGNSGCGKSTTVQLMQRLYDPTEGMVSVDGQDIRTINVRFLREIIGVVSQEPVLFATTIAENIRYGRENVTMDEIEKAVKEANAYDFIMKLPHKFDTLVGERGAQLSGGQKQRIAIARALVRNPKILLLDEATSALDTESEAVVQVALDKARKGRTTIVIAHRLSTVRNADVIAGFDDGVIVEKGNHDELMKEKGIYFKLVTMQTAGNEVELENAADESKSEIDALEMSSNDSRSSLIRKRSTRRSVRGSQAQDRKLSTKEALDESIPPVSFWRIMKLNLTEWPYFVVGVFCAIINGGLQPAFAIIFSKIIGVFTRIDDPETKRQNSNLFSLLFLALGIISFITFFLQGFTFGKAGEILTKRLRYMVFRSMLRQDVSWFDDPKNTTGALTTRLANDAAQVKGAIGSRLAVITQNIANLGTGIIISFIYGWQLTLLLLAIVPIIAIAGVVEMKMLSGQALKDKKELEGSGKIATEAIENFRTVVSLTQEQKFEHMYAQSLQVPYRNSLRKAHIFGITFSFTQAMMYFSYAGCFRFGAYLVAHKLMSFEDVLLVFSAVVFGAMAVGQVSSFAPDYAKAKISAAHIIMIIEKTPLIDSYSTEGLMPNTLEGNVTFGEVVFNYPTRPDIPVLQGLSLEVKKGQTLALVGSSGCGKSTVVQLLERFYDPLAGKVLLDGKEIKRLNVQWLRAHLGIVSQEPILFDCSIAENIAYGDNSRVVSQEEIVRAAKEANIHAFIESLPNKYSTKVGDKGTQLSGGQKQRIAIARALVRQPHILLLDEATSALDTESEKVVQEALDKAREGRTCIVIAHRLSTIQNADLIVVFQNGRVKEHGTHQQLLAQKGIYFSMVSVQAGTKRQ

In the case of `O=C(Nc1cc(C(F)(F)F)cc(C(F)(F)F)c1)Nc1ccc(Br)cc1-c1nnn[nH]1` [SCO-101], the “effect on PANC-1-Pac cells (cell viability), drug alone” value with PANC-1-Pac cells is on record as “dose-dependent effect”. In addition, the “ZIP synergy score with paclitaxel” value with PANC-1-Pac cells (PANC-1-Pac cells, SCO-101 + paclitaxel, score above 10 indicates synergy) was 16.795. Moreover, the IC50 in data set [1] was 16.1 µM.
